Where “and” joins values, the source holds several entries; their conditions need not be identical. Identical values can stand only once.
Key:
[1] = biological target: hCA IV (Homo sapiens, UniProt P22748); settings: read-out: KI hCA IV; stopped-flow CO2 hydrase assay; mean from three different assays, errors ±5–10%
[2] = biological target: hCA II (Homo sapiens, UniProt P00918); settings: read-out: KI hCA II; stopped-flow CO2 hydrase assay; mean from three different assays, errors ±5–10%
[3] = biological target: hCA VII (Homo sapiens, UniProt P43166); settings: read-out: KI hCA VII; stopped-flow CO2 hydrase assay; mean from three different assays, errors ±5–10%
Chain of hCA VII (P43166 whole entry): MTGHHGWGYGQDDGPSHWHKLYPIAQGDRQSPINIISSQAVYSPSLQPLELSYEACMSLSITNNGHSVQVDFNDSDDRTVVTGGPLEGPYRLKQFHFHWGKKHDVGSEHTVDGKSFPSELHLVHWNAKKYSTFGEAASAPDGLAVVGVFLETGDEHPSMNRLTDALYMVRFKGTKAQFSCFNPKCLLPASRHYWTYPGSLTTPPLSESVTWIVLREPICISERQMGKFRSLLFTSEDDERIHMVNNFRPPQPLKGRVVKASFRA

[4] = biological target: T1, hCA IX (Homo sapiens, UniProt Q16790); assay type: biochemical
T1 construct: made in house

[5] = biological target: T2, TRPV1 receptor (Homo sapiens, UniProt Q8NER1); assay: TRPV1 assay, Fluo-4NW fluorescence in SH-SY5Y-TRPV1 cells; assay type: cell-based; settings: read-out: EC50 on TRPV1 receptor activity (agonism)
T2 construct: expressed in transfected cells
T2 sequence (Q8NER1 whole entry): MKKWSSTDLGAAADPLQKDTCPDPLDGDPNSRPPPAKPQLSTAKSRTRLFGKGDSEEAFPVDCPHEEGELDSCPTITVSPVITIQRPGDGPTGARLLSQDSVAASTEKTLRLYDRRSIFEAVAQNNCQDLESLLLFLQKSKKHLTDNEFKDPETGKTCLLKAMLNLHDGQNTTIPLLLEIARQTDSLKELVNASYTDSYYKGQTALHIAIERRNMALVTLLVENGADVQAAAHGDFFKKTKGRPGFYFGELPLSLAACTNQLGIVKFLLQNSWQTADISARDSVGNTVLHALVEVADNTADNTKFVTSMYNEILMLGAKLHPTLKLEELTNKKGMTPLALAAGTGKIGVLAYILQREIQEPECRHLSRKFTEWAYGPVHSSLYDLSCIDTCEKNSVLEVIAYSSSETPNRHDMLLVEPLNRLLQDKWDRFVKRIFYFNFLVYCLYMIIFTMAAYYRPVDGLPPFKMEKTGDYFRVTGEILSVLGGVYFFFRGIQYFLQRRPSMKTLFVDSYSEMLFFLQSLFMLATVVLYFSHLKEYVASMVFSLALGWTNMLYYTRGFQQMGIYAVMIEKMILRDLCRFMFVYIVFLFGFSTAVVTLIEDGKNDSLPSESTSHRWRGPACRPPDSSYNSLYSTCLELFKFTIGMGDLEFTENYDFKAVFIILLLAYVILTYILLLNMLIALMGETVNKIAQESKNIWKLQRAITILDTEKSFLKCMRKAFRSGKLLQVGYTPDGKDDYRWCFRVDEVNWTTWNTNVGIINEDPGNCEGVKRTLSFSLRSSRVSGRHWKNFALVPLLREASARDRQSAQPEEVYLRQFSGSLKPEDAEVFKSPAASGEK
Description: SH-SY5Y-TRPV1 cells (kindly provided by Johanna Lilja and Anna Forsby (University of Stockholm, Stockholm, Sweden))[40] were cultured in 96 wells. Upon 90% confluence had been reached, the cells were loaded with 5 μM Fluo-4NW for 1 h at 37 °C. […] Briefly, after measuring the basal fluorescence of the plate (four cycles), testing compounds were added to the plate, and the fluorescence was measured for additional 10 cycles; thereafter, 10 μM capsaicin was added with a microinjector and the fluorescence was monitored for an additional 10 cycles.

[6] = biological target: hCA XII (Homo sapiens, UniProt O43570); settings: read-out: KI hCA XII; stopped-flow CO2 hydrase assay; mean from three different assays, errors ±5–10%
Chain of hCA XII (O43570 25-354): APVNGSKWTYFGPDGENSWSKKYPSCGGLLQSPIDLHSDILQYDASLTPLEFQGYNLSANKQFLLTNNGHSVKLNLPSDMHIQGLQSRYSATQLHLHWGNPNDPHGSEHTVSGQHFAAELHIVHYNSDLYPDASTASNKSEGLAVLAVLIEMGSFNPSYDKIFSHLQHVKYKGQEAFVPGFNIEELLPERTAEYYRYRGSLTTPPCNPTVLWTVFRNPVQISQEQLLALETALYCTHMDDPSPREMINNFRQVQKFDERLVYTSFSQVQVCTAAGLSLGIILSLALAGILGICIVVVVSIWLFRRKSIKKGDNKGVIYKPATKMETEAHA

[7] = biological target: hCA I (Homo sapiens, UniProt P00915); settings: read-out: KI hCA I; stopped-flow CO2 hydrase assay; mean from three different assays, errors ±5–10%
Chain of hCA I (P00915 whole entry): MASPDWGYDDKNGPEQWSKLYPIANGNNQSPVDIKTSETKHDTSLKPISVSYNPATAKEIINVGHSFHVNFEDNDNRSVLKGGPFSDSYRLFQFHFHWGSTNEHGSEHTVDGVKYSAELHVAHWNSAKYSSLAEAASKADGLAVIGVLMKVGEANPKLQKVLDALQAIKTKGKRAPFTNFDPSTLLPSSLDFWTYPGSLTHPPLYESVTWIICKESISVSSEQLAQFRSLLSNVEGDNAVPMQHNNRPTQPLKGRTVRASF

Chain of hCA IV (P22748 19-312): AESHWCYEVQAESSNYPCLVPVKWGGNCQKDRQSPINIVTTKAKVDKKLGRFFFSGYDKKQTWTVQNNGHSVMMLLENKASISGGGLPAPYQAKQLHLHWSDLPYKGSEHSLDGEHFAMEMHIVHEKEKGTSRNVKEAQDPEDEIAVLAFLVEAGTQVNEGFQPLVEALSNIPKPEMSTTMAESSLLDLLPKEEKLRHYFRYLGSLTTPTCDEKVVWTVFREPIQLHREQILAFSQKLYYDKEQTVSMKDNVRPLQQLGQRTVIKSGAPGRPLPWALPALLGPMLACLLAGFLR

Question: For `NS(=O)(=O)c1ccc(N2CC[C@@H](NC(=O)Nc3ccc(F)cc3)C2)nc1` [7a, (R)-6-(3-(3-(4-Fluorophenyl)ureido)pyrrolidin-1-yl)pyridine-3-sulfonamide], which Ki [1] is on record?
Answer: 2.66 µM

Question: And the Ki [2]?
Answer: 15.1 nM

Question: What about the Ki [3] of the same molecule?
Answer: 6.6 nM

Question: What about the Ki [4] of the same molecule?
Answer: 32.2 nM

Question: What about the EC50 [5] of the same molecule?
Answer: > 100 µM

Question: And the Ki [6]?
Answer: 59.3 nM

Question: Which Ki [1] does the source give for `NS(=O)(=O)c1ccc(N2CC[C@@H](NC(=O)Nc3ccc(Cl)c(C(F)(F)F)c3)C2)nc1` [10a, (R)-6-(3-(3-(4-Chloro-3-(trifluoromethyl)phenyl)ureido)pyrrolidin-1-yl)pyridine-3-sulfonamide] here?
Answer: 4.02 µM

Question: And the Ki [7]?
Answer: 788 nM

Question: And the Ki [3]?
Answer: 78.6 nM

Question: What about the Ki [4] of the same molecule?
Answer: 737 nM

Question: What about the EC50 [5] of the same molecule?
Answer: 74.5 µM

Question: With `NS(=O)(=O)c1ccc(N2CC[C@@H](NC(=O)Nc3ccccc3F)C2)nc1` [11a, (R)-6-(3-(3-(2-Fluorophenyl)ureido)pyrrolidin-1-yl)pyridine-3-sulfonamide] as the molecule, how does the Ki [7] read?
Answer: 37 nM

Question: And the Ki [3]?
Answer: 187 nM

Question: And the EC50 [5]?
Answer: > 100 µM

Question: What about the Ki [6] of the same molecule?
Answer: 73 nM

Question: What does the source list for `NS(=O)(=O)c1ccc(N2CC[C@@H](NC(=O)Nc3ccccc3Cl)C2)nc1` [12a, (R)-6-(3-(3-(2-Chlorophenyl)ureido)pyrrolidin-1-yl)pyridine-3-sulfonamide]?
Answer: Ki [1]: 3 µM; Ki [7]: 82.5 nM; Ki [3]: 73.5 nM; Ki [4]: 316 nM; EC50 [5]: 11.9 µM; Ki [6]: 83.6 nM

Question: Which Ki [3] does the source give for `NS(=O)(=O)c1ccc(N2CC[C@@H](NC(=O)Nc3ccc(Oc4ccccc4)cc3)C2)nc1` [13a, (R)-6-(3-(3-(4-Phenoxyphenyl)ureido)pyrrolidin-1-yl)pyridine-3-sulfonamide] here?
Answer: 76.9 nM

Question: What about the Ki [4] of the same molecule?
Answer: 245 nM

Question: And the EC50 [5]?
Answer: > 100 µM

Question: What about the Ki [6] of the same molecule?
Answer: 407 nM

Question: `NS(=O)(=O)c1ccc(N2CC[C@@H](NC(=O)Nc3ccc(Cl)c(Cl)c3)C2)nc1` [14a, (R)-6-(3-(3-(3,4-Dichlorophenyl)ureido)pyrrolidin-1-yl)pyridine-3-sulfonamide] was tested. Which Ki [1] did it give?
Answer: 4.9 µM

Question: And the Ki [2]?
Answer: 82.2 nM

Question: What about the Ki [3] of the same molecule?
Answer: 26.5 nM

Question: And the EC50 [5]?
Answer: > 100 µM

Question: And the Ki [6]?
Answer: 7.2 nM

Question: How did the Ki [7] turn out when `NS(=O)(=O)c1ccc(N2CC[C@@H](NC(=O)Nc3ccc([N+](=O)[O-])cc3)C2)nc1` [19a, (R)-6-(3-(3-(4-Nitrophenyl)ureido)pyrrolidin-1-yl)pyridine-3-sulfonamide] was run?
Answer: 252 nM

Question: And the Ki [2]?
Answer: 437 nM

Question: What about the Ki [3] of the same molecule?
Answer: 56.1 nM

Question: What about the Ki [4] of the same molecule?
Answer: 145 nM

Question: And the EC50 [5]?
Answer: > 100 µM

Question: What about the Ki [6] of the same molecule?
Answer: 57.4 nM

Question: How did the Ki [1] turn out when `NS(=O)(=O)c1ccc(N2CC[C@@H](NC(=O)Nc3c(F)cc(F)cc3Br)C2)nc1` [22a, (R)-6-(3-(3-(2-Bromo-4,6-difluorophenyl)ureido)pyrrolidin-1-yl)pyridine-3-sulfonamide] was run?
Answer: 4.88 µM

Question: What about the Ki [2] of the same molecule?
Answer: 446 nM

Question: And the Ki [3]?
Answer: 41.1 nM

Question: What about the EC50 [5] of the same molecule?
Answer: > 100 µM

Question: And the Ki [6]?
Answer: 8.1 nM

Question: With `NS(=O)(=O)c1ccc(NC(=S)N[C@@H]2CCN(c3ccccn3)C2)cc1` [35a, (R)-4-(3-(1-(Pyridin-2-yl)pyrrolidin-3-yl)thioureido)benzenesulfonamide] as the molecule, how does the Ki [1] read?
Answer: 0.774 µM

Question: What about the Ki [7] of the same molecule?
Answer: 48 nM

Question: What about the Ki [3] of the same molecule?
Answer: 9.7 nM

Question: And the Ki [4]?
Answer: 9.6 nM

Question: And the EC50 [5]?
Answer: > 100 µM

Question: What about the Ki [6] of the same molecule?
Answer: 9 nM

Question: With `NS(=O)(=O)c1cccc(NC(=S)N[C@@H]2CCN(c3ccccn3)C2)c1` [36a, (R)-3-(3-(1-(Pyridin-2-yl)pyrrolidin-3-yl)thioureido)benzenesulfonamide] as the molecule, how does the Ki [1] read?
Answer: 0.32 µM

Question: What about the Ki [7] of the same molecule?
Answer: 85.1 nM

Question: And the Ki [2]?
Answer: 9.6 nM

Question: What about the Ki [3] of the same molecule?
Answer: 55.4 nM

Question: And the EC50 [5]?
Answer: > 100 µM

Question: Which Ki [1] does the source give for `NS(=O)(=O)c1ccc(NC(=S)N[C@@H]2CCN(c3ccc(C(F)(F)F)cn3)C2)cc1` [39a, (R)-4-(3-(1-(5-(Trifluoromethyl)pyridin-2-yl)pyrrolidin-3-yl)thioureido)benzenesulfonamide] here?
Answer: 4.97 µM

Question: What about the Ki [3] of the same molecule?
Answer: 73.3 nM

Question: And the Ki [4]?
Answer: 355 nM

Question: And the EC50 [5]?
Answer: 12.5 µM and 12.4 µM

Question: What about the Ki [6] of the same molecule?
Answer: 62.5 nM

Question: With `NS(=O)(=O)c1ccc(NC(=S)N[C@H]2CCN(c3ccc(C(F)(F)F)cn3)C2)cc1` [39b, (S)-4-(3-(1-(5-(Trifluoromethyl)pyridin-2-yl)pyrrolidin-3-yl)thioureido)benzenesulfonamide] as the molecule, how does the Ki [1] read?
Answer: 9.72 µM

Question: What about the Ki [3] of the same molecule?
Answer: 15.7 nM

Question: And the Ki [4]?
Answer: 6 nM

Question: And the EC50 [5]?
Answer: 12.5 µM

Question: And the Ki [6]?
Answer: 9.4 nM

Question: Which Ki [7] does the source give for `NS(=O)(=O)c1cccc(NC(=S)N[C@@H]2CCN(c3ccc(C(F)(F)F)cn3)C2)c1` [40a, (R)-3-(3-(1-(5-(Trifluoromethyl)pyridin-2-yl)pyrrolidin-3-yl)thioureido)benzenesulfonamide] here?
Answer: 490 nM

Question: What about the Ki [3] of the same molecule?
Answer: 55.1 nM

Question: And the Ki [4]?
Answer: 36.4 nM

Question: And the EC50 [5]?
Answer: 21.9 µM

Question: Which Ki [1] does the source give for `NS(=O)(=O)c1ccc(NC(=O)N[C@@H]2CCN(c3ccccn3)C2)cc1` [41a, (R)-4-(3-(1-(Pyridin-2-yl)pyrrolidin-3-yl)ureido)benzenesulfonamide] here?
Answer: 3.51 µM

Question: And the Ki [7]?
Answer: 58.3 nM

Question: And the Ki [2]?
Answer: 8 nM

Question: And the Ki [3]?
Answer: 9.5 nM

Question: What about the Ki [4] of the same molecule?
Answer: 29.1 nM

Question: And the Ki [6]?
Answer: 31.6 nM

Question: What does the source list for `NS(=O)(=O)c1cccc(NC(=O)N[C@@H]2CCN(c3ccccn3)C2)c1` [42a, (R)-3-(3-(1-(Pyridin-2-yl)pyrrolidin-3-yl)ureido)benzenesulfonamide]?
Answer: Ki [1]: 2.48 µM; Ki [7]: 9.6 nM; Ki [2]: 1.7 nM; Ki [3]: 8.1 nM; Ki [4]: 126 nM; Ki [6]: 8.2 nM

Question: Which results are given for `NS(=O)(=O)c1ccc(NC(=O)N[C@H]2CCN(c3cccc([N+](=O)[O-])n3)C2)cc1` [43b, (S)-4-(3-(1-(6-Nitropyridin-2-yl)pyrrolidin-3-yl)ureido)benzenesulfonamide]?
Answer: Ki [1]: 8.23 µM; Ki [7]: 76.2 nM; Ki [2]: 14.9 nM; Ki [3]: 8.7 nM; Ki [4]: 26.9 nM; Ki [6]: 9.1 nM

Question: With `NS(=O)(=O)c1cccc(NC(=O)N[C@@H]2CCN(c3cccc([N+](=O)[O-])n3)C2)c1` [44a, (R)-3-(3-(1-(6-Nitropyridin-2-yl)pyrrolidin-3-yl)ureido)benzenesulfonamide] as the molecule, how does the Ki [1] read?
Answer: 2.1 µM

Question: And the Ki [7]?
Answer: 76 nM

Question: What about the Ki [2] of the same molecule?
Answer: 6.1 nM

Question: What about the Ki [3] of the same molecule?
Answer: 74.8 nM

Question: And the Ki [4]?
Answer: 971 nM

Question: What about the Ki [6] of the same molecule?
Answer: 37.9 nM

Question: With `NS(=O)(=O)c1cccc(NC(=O)N[C@H]2CCN(c3cccc([N+](=O)[O-])n3)C2)c1` [44b, (S)-3-(3-(1-(6-Nitropyridin-2-yl)pyrrolidin-3-yl)ureido)benzenesulfonamide] as the molecule, how does the Ki [1] read?
Answer: 9.55 µM

Question: And the Ki [7]?
Answer: 87.2 nM

Question: And the Ki [2]?
Answer: 6.6 nM

Question: And the Ki [3]?
Answer: 17.7 nM

Question: And the Ki [4]?
Answer: 193 nM

Question: And the Ki [6]?
Answer: 48.4 nM

Question: What does the source list for `NS(=O)(=O)c1ccc(NC(=O)N[C@@H]2CCN(c3ccc(C(F)(F)F)cn3)C2)cc1` [45a, (R)-4-(3-(1-(5-(Trifluoromethyl)pyridin-2-yl)pyrrolidin-3-yl)ureido)benzenesulfonamide]?
Answer: Ki [1]: 3.9 µM; Ki [7]: 72.4 nM; Ki [2]: 27.4 nM; Ki [3]: 8.2 nM; Ki [4]: 36.7 nM; Ki [6]: 6.3 nM

Question: For `NS(=O)(=O)c1ccc(NC(=O)N[C@H]2CCN(c3ccc(C(F)(F)F)cn3)C2)cc1` [45b, (S)-4-(3-(1-(5-(Trifluoromethyl)pyridin-2-yl)pyrrolidin-3-yl)ureido)benzenesulfonamide], which Ki [1] is on record?
Answer: 9.71 µM

Question: And the Ki [7]?
Answer: 68.6 nM

Question: What about the Ki [2] of the same molecule?
Answer: 46.3 nM

Question: And the Ki [3]?
Answer: 12.8 nM

Question: And the Ki [4]?
Answer: 54 nM

Question: What about the Ki [6] of the same molecule?
Answer: 8.6 nM

Question: Which Ki [7] does the source give for `NS(=O)(=O)c1cccc(NC(=O)N[C@@H]2CCN(c3ccc(C(F)(F)F)cn3)C2)c1` [46a, (R)-3-(3-(1-(5-(Trifluoromethyl)pyridin-2-yl)pyrrolidin-3-yl)ureido)benzenesulfonamide] here?
Answer: 199 nM

Question: What about the Ki [2] of the same molecule?
Answer: 8.4 nM

Question: And the EC50 [5]?
Answer: 37.3 µM

Question: What about the Ki [6] of the same molecule?
Answer: 6.6 nM

Reference: paper PMC9940855, “First-in-Class Dual Hybrid Carbonic Anhydrase Inhibitors and Transient Receptor Potential Vanilloid 1 Agonists Revert Oxaliplatin-Induced Neuropathy” (Journal of Medicinal Chemistry, 2023)
